Our source for the melting point values is a melting point compilation (Tetko et al.; mined from patent text by program, amines drawn as free bases though some values may be those of a salt).

Turning to `CCOC(=O)C1=C(C)NC(C=NOC)=C(C(=O)OCC)C1c1ccccc1Cl` (stereo not drawn), the melting point (usually the temperature of the solid-liquid transition) was 110 to 112 °C.
The figure for `O=c1oc(-c2ccc3c(c2)OCCO3)cc(O)c1C(CC1CC1)SC1CCCC1` (stereo not drawn) is 80 to 82 °C.
With `CC(=O)C=Cc1ccc(OCc2ccccc2)cc1`, the melting point was 106 to 107 °C.
Compound `CCC(=O)NCCc1c[nH]c2ccc3c(c12)CCCO3` yielded a melting point of 106 to 107 °C.
The compound `CC(C)Oc1cc(-n2c(Cl)nc(C(F)(F)C(F)(F)F)cc2=O)c(F)cc1Cl` yielded a melting point of 55 to 58 °C.
The figure for `O=c1[nH]c2cc3[nH]c(=O)oc3cc2[nH]1` is over 360 °C; for `O=C(c1ccc([N+](=O)[O-])cc1)N1Cc2cccn2Cc2ccccc21` it is 188 to 190 °C.
As to `Cc1c(-c2cccnc2)n(CCCCCC(=O)O)c2ccc(Cl)cc12`, the melting point lay in the range of 137 to 141 °C.
The figure for `CCN1CCCCC1CNS(=O)(=O)c1ccc(Nc2ccnc3cc(Cl)ccc23)cc1` (stereo not drawn) is 203 to 205 °C; for `Cc1oc(-c2ccccc2)nc1C(O)COc1ccc(C=C2SC(=S)NC2=O)nc1` (stereo not drawn) it is 218 °C; for `Cn1ncc2c1-c1c(Sc3ccccn3)sc(C(N)=O)c1CC2` it is 234 to 236 °C.
The figure for `CC(C)c1ccc(-n2nc(C(F)(F)F)cc2-c2ccc(S(C)(=O)=O)cc2)cc1Cl` is 84 to 86 °C; for `Cc1ccc2cccc(OCc3c(Cl)ccc(S(=O)(=O)N(C)Cc4cccc(C(=O)O)c4)c3Cl)c2n1` it is 204 °C; for `CC(=O)N1CCN=C1Nc1cc(-c2ccccc2)nn1C` it is 154 to 155 °C.
The figure for `Cc1c(SCCN(C)Cc2ccccc2)ccnc1CSc1nc2ccccc2[nH]1` is 110 to 112 °C; for `O=C(c1ccc(Cl)c(Cl)c1)N1C(=O)N2CCCC2(Cc2ccc(Br)cc2)C1=O` (stereo not drawn) it is 158 °C; for `CCCCCCCP(=O)(O)O[C@@H](CCCCN)C(=O)N1CCC[C@H]1C(=O)O` it is 180 to 186 °C.
On to `CCc1cc(C(C)=O)c(O)cc1OCc1ccc(C(=O)O)c(O)c1`, for which the melting point fell in the range of 214 to 216 °C.
To `CC(C)CNS(=O)(=O)c1cccc(NC(=O)c2cnn3c(C(F)(F)F)cc(-c4ccc(C(F)(F)F)cc4)nc23)c1` belongs 205 °C.
The figure for `COc1ccc2c(-c3ccccc3F)noc2c1C` is 105 to 108 °C.
`CC(=O)N1CCN(N=Cc2ccc(F)cc2)CC1` had a melting point of 88 to 90 °C.
`COc1cccc(CC(=O)O)c1OCCCc1cn(-c2ccc(C(F)(F)F)nn2)nc1C(C)(C)C` gave a melting point of 131 to 132 °C.
To `O=C1C(=O)c2ccc(Cl)cc2C2=C1SCC1(CCNCC1)O2` belongs over 300 °C; to `COc1c(C)c(C)c(OC)c(CN2C(=O)C3CCCC3=Nc3ccccc32)c1C` (stereo not drawn), 202 to 204 °C.
With `CC(C)(CO)c1ccc(C#N)cc1`, the melting point lay in the range of 70 to 82 °C.
On to `COc1ccc(C2=C(c3ccc(O)cc3)CCCc3cc(O)ccc32)cc1`, for which the melting point fell in the range of 250 to 252 °C.
To `Cc1ncccc1NC(=NC#N)NC(NC(=O)Cc1ccc(F)c(F)c1)C(C)(C)C` (stereo not drawn) belongs 58 to 60 °C; to `CC(C)(C)OC(=O)NCCC(=O)N[C@@H](CC(=O)OCc1ccccc1)C(=O)NCCc1ccc(OCC(=O)OCc2ccccc2)cc1`, 123 to 124 °C; to `O=C(O)CCCSc1ncnc2ncn(Cc3ccc4c(c3)Nc3nccnc3S4)c12`, 120 to 130 °C.
The figure for `O=Cc1c[nH]c2ccc3c(c12)CC(O)CO3` (stereo not drawn) is 158 to 162 °C; for `CC(=O)OC(CN1C(=O)N(C(C)=O)C2(CC(C)(C)N(C)C(C)(C)C2)C1=O)CN1C(=O)N(C(C)=O)C2(CC(C)(C)N(C)C(C)(C)C2)C1=O` it is 105 to 108 °C; for `CNC(=O)c1ccc(-c2ccc(OC)c(-c3cccc([N+](=O)[O-])c3)c2)cc1` it is 171 to 172 °C.
`O=c1cc2c(nn1Cc1ccc(Cl)cc1)-c1ccccc1S(=O)CC2` (stereo not drawn) yielded a melting point of 207 to 209 °C.
The figure for `COc1cc2c(c(N(C(C)=O)C(C)=O)c1)CC(C)O2` (stereo not drawn) is 56 to 57 °C.
Take `Cc1c(NC(=O)CC(C)(C)C)c(C)c2c(c1C(C)O)OCC2c1ccc(C(C)C)cc1` (stereo not drawn): the melting point was in the range of 156 to 157 °C.
The figure for `Cc1ccc2ccc(C(=O)O)c(O)c2n1` is 217 to 219 °C; for `CC(C)OC(=O)Nc1c(C(O)(C(F)(F)F)C(F)(F)F)ccc2ccccc12` it is 139 to 141 °C; for `O=c1cc(-c2ccc(OCCOCCOCCOc3ccc(-c4cc(=O)c5c(O)cc(O)cc5o4)cc3)cc2)oc2cc(O)cc(O)c12` it is 143 to 145 °C.
The compound `CC(=O)N(c1ccc(O)cc1)c1ccc2cc(O)ccc2c1` had a melting point of 255 °C.
To `CCOc1c(NCCP(=O)(OCC)OCC)c(=O)c1=O` belongs 66 to 68 °C; to `COc1ccc(N(CCCC(=O)O)C(=O)C(C)N(C(=O)c2ccc(Cl)cc2Cl)c2ccc(OC)cc2)cc1` (stereo not drawn), 159 to 160 °C.
To `N#Cc1cnc2c(sc3ccccc32)c1Nc1ccc(Cl)cc1Cl` belongs 260 to 262 °C.
The figure for `CC(C#CCCc1ccccc1)N(O)C(N)=O` (stereo not drawn) is 113 to 114 °C.
`CC1CCCN1c1nccc(Oc2ccc(NC(=O)c3cc(F)cc(N4CCCCC4)c3)c3ccccc23)n1` (stereo not drawn) displayed a melting point of 93 to 94 °C.
Turning to `COCn1ccnc1C(O)(c1ccc(Cl)cc1)c1ccc(Cl)cc1`, the melting point lay within 145 to 146 °C.
For `COc1ccc2c(=O)cc(-c3ccc(F)cc3)oc2c1`, the melting point worked out at 162 °C.
Compound `Nc1nc2ccccc2c2c1nc(-c1ccccc1)n2CCCCNC(=S)Nc1cccnc1` came in with a melting point of 118 to 120 °C.
Compound `COc1ccc(C(=O)c2ccccc2C(F)(F)F)c(O)c1Cl` returned a melting point of 101 to 102 °C.
`COc1ccc([C@@H]2c3ccccc3C[C@@H]3CC(=O)N(C)CCN32)cc1` (racemic) displayed a melting point of 170 to 172 °C.
The figure for `O[C@@H]1C=CC=C(Cl)[C@@H]1O` (relative stereo) is 95 to 96 °C; for `ClCc1nccn1Cc1ccccc1` it is 180 to 182 °C; for `O=C(O)c1c(Cc2cc3c(cc2Cl)OCO3)c(-c2cccs2)nn1CC1CCCC(C(=O)O)C1` (stereo not drawn) it is over 260 °C.
As to `O=C(O)CCC(=O)c1cccc(-n2ccnc2)c1`, the melting point is 140 to 142 °C.
On to `NC(=O)CCn1c2ccc(O)cc2c2c3c(c(-c4ccccc4Cl)cc21)C(=O)NC3=O`, for which the melting point is 319 to 322 °C.
The figure for `CS(=O)c1cccc(-n2cnc(-c3ccc(F)cc3)c2-c2ccncc2)c1` (stereo not drawn) is 233 to 234 °C; for `Cc1ccccc1NC(C(=O)O)c1c(Cl)ccc(Cl)c1Cl` (stereo not drawn) it is 193 °C; for `NNC(=O)Nc1ccc(-n2ncn(-c3ccc(OCC(F)(F)C(F)F)cc3)c2=O)cc1` it is over 350 °C.
To `O=C(O)c1cccc2c(=O)c3cc(I)ccc3[nH]c12` belongs 355 to 357 °C; to `NC(=O)c1c(Cl)c(Cl)c(Cl)c(Cl)c1Cl`, 268 to 270 °C; to `CCCCc1nc2cccc(C(=O)OC)c2n1Cc1ccc(-c2ccccc2CO)cc1`, 126 to 127 °C.
The figure for `COc1cccc(S(=O)(=O)N2C3CCC2CN(CC(=O)Nc2ccccc2C)C3)c1` is 163 to 165 °C; for `Fc1cccc(Cl)c1-c1c(Cl)cc(Cl)nc1Cl` it is 210 °C; for `Clc1nccnc1OCCOc1cccc(Br)c1` it is 57 to 58 °C.
`CC(=O)NC1CCC(CNc2nc3c(s2)CCOc2ccccc2-3)CC1` (stereo not drawn) registered a melting point of 69 to 72 °C.
To `CN1CC=C(c2c[nH]c3ccc(NC(=O)c4ccc(F)cc4Cl)cc23)CC1` belongs 212 to 222 °C.
The figure for `C=CCC1(C)Cc2cc(O)c(Cl)c(Cl)c2C1=O` (stereo not drawn) is 180 °C; for `NNc1nc(Cl)nc2c(Cl)cc(Cl)cc12` it is over 280 °C.
The figure for `COc1nc(OC)c2cc(CBr)ccc2n1` is 138 to 143 °C.
As to `Cc1cnc2c(NC(=O)c3c(Cl)cccc3Cl)ccc(C)c2c1Cl`, the melting point is 236 to 240 °C.
Turning to `CC(=O)CC(=O)NC1CCCC1`, the melting point was 52 °C.
The figure for `CN(C(=S)c1ccc2nonc2c1)C1CCOCC1` is 174 to 175 °C; for `C#CCON=C(C)C1CN2CCC1CC2` (stereo not drawn) it is 56 to 58 °C; for `COc1cccc(Nc2cccc3c2C(=O)N(C2CCC(=O)NC2=O)C3=O)c1` (stereo not drawn) it is 210 to 212 °C.
As to `N#CCCCNC(=O)c1nn(C2CCCCO2)cc1NC(=O)c1ccccn1` (stereo not drawn), the melting point lay within 155 to 157 °C.
To `Cc1cncc(C)c1-c1c(C)cc(C(C#N)C#N)cc1C` belongs 58 to 60 °C.
Turning to `CC(=O)OCC(=O)C1C(C)CC2C3CC(Cl)C4=CC(=O)CCC4(C)C3C(O)CC21C` (stereo not drawn), the melting point was 209 °C.
The compound `O=C(c1ccc(Nc2ccccc2[N+](=O)[O-])cc1)c1ccccc1O` displayed a melting point of 189 to 193 °C.
To `[O-][N+](O)=Cc1ccc(Cl)cc1` belongs 151 to 153 °C; to `NP(N)(=O)OCC(Cl)(Cl)Cl`, 86 to 87 °C; to `CCOC(=O)c1ccc(C(=O)NNC(=O)c2ccc(C(=O)OCC)cc2)cc1`, 191 to 195 °C.
In turn, `Cc1noc(C)c1NC(=O)c1ccc(OC(F)F)c2oc(C3CCOC3)cc12` (stereo not drawn) displayed a melting point of 156 °C.
The figure for `CC(C)(C)C(=O)C=CC1C(C(=O)OC(C#N)c2cccc(Oc3ccccc3)c2)C1(C)C` (stereo not drawn) is 89 °C.
The figure for `CC(S(N)(=O)=O)S(=O)(=O)N1CCCC1` (stereo not drawn) is 78 to 80 °C.
Compound `CN1CC=C(C(=O)N2c3ccccc3NC(=O)c3cscc32)CC1` registered a melting point of 210 to 212 °C.
To `Cc1nc(-c2cc(-n3c(=O)cc(C(F)(F)F)n(C)c3=O)ccc2Cl)sc1C` belongs 200 °C; to `c1cn2nc(N3CCOCC3)c3c(c2n1)CCCC3`, 160 to 161 °C; to `COC1=CC(=O)C(Cc2ncn(C(c3ccccc3)(c3ccccc3)c3ccccc3)c2C)CC1` (stereo not drawn), 145 to 148 °C.
As to `COCC12CCC(=O)CC1CCC1C3CCC(=O)C3(C)CCC12` (stereo not drawn), the melting point is 94 to 96 °C.
